Data published in ChEMBL document CHEMBL1140524, “Facile one-pot synthesis of thio and selenourea derivatives: a new class of potent urease inhibitors” (Bioorg Med Chem Lett, 2007).
The source made the active and inactive calls. The calls are words filed in the database; no cut-off is given here.

Legend:
[1] = target: Urease (Canavalia ensiformis) (UniProt P07374); experiment: (§1) Inhibition of jack bean urease
[2] = target: Urease (Canavalia ensiformis, UniProt P07374); experiment: as §1
Urease, sequence (P07374 whole entry): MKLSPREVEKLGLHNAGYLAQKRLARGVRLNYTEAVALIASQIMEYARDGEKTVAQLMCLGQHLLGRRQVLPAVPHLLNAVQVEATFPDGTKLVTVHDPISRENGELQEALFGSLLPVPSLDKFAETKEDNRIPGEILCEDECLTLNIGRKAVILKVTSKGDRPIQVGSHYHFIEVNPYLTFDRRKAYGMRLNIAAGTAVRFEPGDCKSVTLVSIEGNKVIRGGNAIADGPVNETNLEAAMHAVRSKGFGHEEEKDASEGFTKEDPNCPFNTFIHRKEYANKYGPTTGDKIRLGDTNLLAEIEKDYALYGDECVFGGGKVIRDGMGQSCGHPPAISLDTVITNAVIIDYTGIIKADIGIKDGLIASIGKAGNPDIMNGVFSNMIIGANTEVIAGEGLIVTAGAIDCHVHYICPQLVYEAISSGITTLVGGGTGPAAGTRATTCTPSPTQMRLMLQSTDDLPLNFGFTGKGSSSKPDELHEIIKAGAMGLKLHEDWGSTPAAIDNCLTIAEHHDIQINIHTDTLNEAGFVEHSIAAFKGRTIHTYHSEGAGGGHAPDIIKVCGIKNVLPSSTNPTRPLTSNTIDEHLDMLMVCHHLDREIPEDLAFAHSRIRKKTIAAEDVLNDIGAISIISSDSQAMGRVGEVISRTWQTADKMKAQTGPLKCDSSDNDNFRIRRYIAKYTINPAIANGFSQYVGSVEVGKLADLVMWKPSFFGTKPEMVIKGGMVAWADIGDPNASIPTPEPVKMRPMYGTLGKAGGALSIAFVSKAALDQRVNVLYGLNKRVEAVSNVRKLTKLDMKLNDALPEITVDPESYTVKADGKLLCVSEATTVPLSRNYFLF

Urease (Canavalia ensiformis), sequence (P07374 whole entry, looked up): as the sequence (P07374 whole entry) above

SMILES | Activity [1] | Ki [2] [µM]
CN(C)C(=S)N1CCOCC1 | inactive | –
CN(C)C(=[Se])NCc1ccc(Br)cc1 | – | 0.135
CN(C)C(=[Se])N1CCOCC1 | inactive | –
C[C@H](NC(=[Se])N(C)C)c1cccc2ccccc12 | – | 0.094
CN(C)C(=S)Nc1ccc(Br)cc1 | – | 0.255
CC(C)N(C(=[Se])N(C)C)C1CCCCC1 | – | 0.025
CCCCCCCCCCCCNC(=S)N(C)C | – | 0.124
